# Assays:
# [1] = Human free systemic Cmax in clinical studies; assay type: in vivo; conditions: based on 99.2% protein binding
# Protein binding, human = assay type: in vitro ADME
# [2] = Quantitative whole body autoradiography; assay type: in vivo, rat; conditions: male rat, [3H] Ticagrelor 3 mg/kg
compound,measurement,setting,value
CCCSc1nc(N[C@@H]2C[C@H]2c2ccc(F)c(F)c2)c2nnn([C@@H]3C[C@H](OCCO)[C@@H](O)[C@H]3O)c2n1 [Ticagrelor],Human free systemic Cmax,[1],12 nM
same,fraction unbound,"Protein binding, human",0.008
same,Adrenal gland radioactivity,[2]; 5 min,11.35 μg equivalent/g
same,"Adrenal gland radioactivity, fold of blood value",[2]; 5 min,5.33 fold of blood value
same,Blood (LSC) radioactivity,[2]; 5 min,2.131 μg equivalent/g
same,Brain radioactivity,[2]; 5 min,0.05 μg equivalent/g
same,"Brain radioactivity, fold of blood value",[2]; 5 min,0.02 fold of blood value
same,Brown fat radioactivity,[2]; 5 min,1.35 μg equivalent/g
same,"Brown fat radioactivity, fold of blood value",[2]; 5 min,0.63 fold of blood value
same,Eye radioactivity,[2]; 5 min,0.50 μg equivalent/g
same,"Eye radioactivity, fold of blood value",[2]; 5 min,0.23 fold of blood value
same,Heart radioactivity,[2]; 5 min,9.15 μg equivalent/g
same,"Heart radioactivity, fold of blood value",[2]; 5 min,4.29 fold of blood value
same,Kidney radioactivity,[2]; 5 min,10.62 μg equivalent/g
same,"Kidney radioactivity, fold of blood value",[2]; 5 min,4.98 fold of blood value
same,Liver radioactivity,[2]; 5 min,16.11 μg equivalent/g
same,"Liver radioactivity, fold of blood value",[2]; 5 min,7.56 fold of blood value
same,Lung radioactivity,[2]; 5 min,7.31 μg equivalent/g
same,"Lung radioactivity, fold of blood value",[2]; 5 min,3.43 fold of blood value
same,Pancreas radioactivity,[2]; 5 min,7.35 μg equivalent/g
same,"Pancreas radioactivity, fold of blood value",[2]; 5 min,3.45 fold of blood value
same,Pituitary gland radioactivity,[2]; 5 min,8.03 μg equivalent/g
same,"Pituitary gland radioactivity, fold of blood value",[2]; 5 min,3.77 fold of blood value
same,Salivary gland radioactivity,[2]; 5 min,3.66 μg equivalent/g
same,"Salivary gland radioactivity, fold of blood value",[2]; 5 min,1.72 fold of blood value
same,Skeletal muscle radioactivity,[2]; 5 min,3.15 μg equivalent/g
same,"Skeletal muscle radioactivity, fold of blood value",[2]; 5 min,1.48 fold of blood value
same,Spinal cord radioactivity,[2]; 5 min,0.05 μg equivalent/g
same,"Spinal cord radioactivity, fold of blood value",[2]; 5 min,0.02 fold of blood value
same,Spleen radioactivity,[2]; 5 min,4.86 μg equivalent/g
same,"Spleen radioactivity, fold of blood value",[2]; 5 min,2.28 fold of blood value
same,Stomach wall radioactivity,[2]; 5 min,7.11 μg equivalent/g
same,"Stomach wall radioactivity, fold of blood value",[2]; 5 min,3.34 fold of blood value
same,Thymus radioactivity,[2]; 5 min,0.99 μg equivalent/g
same,"Thymus radioactivity, fold of blood value",[2]; 5 min,0.46 fold of blood value
same,Thyroid gland radioactivity,[2]; 5 min,7.84 μg equivalent/g
same,"Thyroid gland radioactivity, fold of blood value",[2]; 5 min,3.68 fold of blood value
same,Adrenal gland radioactivity,[2]; 0.5 h,5.26 μg equivalent/g
same,"Adrenal gland radioactivity, fold of blood value",[2]; 0.5 h,5.16 fold of blood value
same,Blood (LSC) radioactivity,[2]; 0.5 h,1.02 μg equivalent/g
same,Brain radioactivity,[2]; 0.5 h,0.04/0.04 μg equivalent/g
same,"Brain radioactivity, fold of blood value",[2]; 0.5 h,0.04/0.04 fold of blood value
same,Brown fat radioactivity,[2]; 0.5 h,0.95 μg equivalent/g
same,"Brown fat radioactivity, fold of blood value",[2]; 0.5 h,0.93 fold of blood value
same,Eye radioactivity,[2]; 0.5 h,0.04/0.04 μg equivalent/g
same,"Eye radioactivity, fold of blood value",[2]; 0.5 h,0.04/0.04 fold of blood value
same,Heart radioactivity,[2]; 0.5 h,4.94 μg equivalent/g
same,"Heart radioactivity, fold of blood value",[2]; 0.5 h,4.84 fold of blood value
same,Kidney radioactivity,[2]; 0.5 h,6.77 μg equivalent/g
same,"Kidney radioactivity, fold of blood value",[2]; 0.5 h,6.64 fold of blood value
same,Liver radioactivity,[2]; 0.5 h,8.44 μg equivalent/g
same,"Liver radioactivity, fold of blood value",[2]; 0.5 h,8.27 fold of blood value
same,Lung radioactivity,[2]; 0.5 h,3.90 μg equivalent/g
same,"Lung radioactivity, fold of blood value",[2]; 0.5 h,3.82 fold of blood value
same,Pancreas radioactivity,[2]; 0.5 h,7.83 μg equivalent/g
same,"Pancreas radioactivity, fold of blood value",[2]; 0.5 h,7.68 fold of blood value
same,Pituitary gland radioactivity,[2]; 0.5 h,7.03 μg equivalent/g
same,"Pituitary gland radioactivity, fold of blood value",[2]; 0.5 h,6.89 fold of blood value
same,Salivary gland radioactivity,[2]; 0.5 h,5.57 μg equivalent/g
same,"Salivary gland radioactivity, fold of blood value",[2]; 0.5 h,5.46 fold of blood value
same,Skeletal muscle radioactivity,[2]; 0.5 h,3.26 μg equivalent/g
same,"Skeletal muscle radioactivity, fold of blood value",[2]; 0.5 h,3.20 fold of blood value
same,Spinal cord radioactivity,[2]; 0.5 h,0.04/0.04 μg equivalent/g
same,"Spinal cord radioactivity, fold of blood value",[2]; 0.5 h,0.04/0.04 fold of blood value
same,Spleen radioactivity,[2]; 0.5 h,3.81 μg equivalent/g
same,"Spleen radioactivity, fold of blood value",[2]; 0.5 h,3.74 fold of blood value
same,Stomach wall radioactivity,[2]; 0.5 h,7.17 μg equivalent/g
same,"Stomach wall radioactivity, fold of blood value",[2]; 0.5 h,7.03 fold of blood value
same,Thymus radioactivity,[2]; 0.5 h,1.28 μg equivalent/g
same,"Thymus radioactivity, fold of blood value",[2]; 0.5 h,1.25 fold of blood value
same,Thyroid gland radioactivity,[2]; 0.5 h,3.85 μg equivalent/g
same,"Thyroid gland radioactivity, fold of blood value",[2]; 0.5 h,3.77 fold of blood value
same,Adrenal gland radioactivity,[2]; 2 h,1.19 μg equivalent/g
same,"Adrenal gland radioactivity, fold of blood value",[2]; 2 h,2.57 fold of blood value
same,Blood (LSC) radioactivity,[2]; 2 h,0.463 μg equivalent/g
same,Brain radioactivity,[2]; 2 h,0.02 μg equivalent/g
same,"Brain radioactivity, fold of blood value",[2]; 2 h,0.04 fold of blood value
same,Brown fat radioactivity,[2]; 2 h,0.46 μg equivalent/g
same,"Brown fat radioactivity, fold of blood value",[2]; 2 h,0.99 fold of blood value
same,Eye radioactivity,[2]; 2 h,0.01 μg equivalent/g
same,"Eye radioactivity, fold of blood value",[2]; 2 h,0.02 fold of blood value
